According to PMC9266822, “Thermal Shift Assay for Small GTPase Stability Screening: Evaluation and Suitability” (International Journal of Molecular Sciences, 2022):
“Also recorded” adds a separate entry of the source.

How the values were obtained:
KRAS WT [1] = target: T1, KRAS WT (Homo sapiens, UniProt P01116); test: QRET nucleotide exchange assay, SOScat induced; assay type: biochemical; conditions: for KRAS binding level / KRAS binding: Fig. 3A legend, SOScat 10 nM; for KRAS binding level / EC50 / KRAS binding: 15 nM KRAS; for EC50: nucleotide titration, SOScat 5 nM (Table S2), 10 nM (Fig. 3 legend)
T1 construct: GG-Hs.KRAS4b (2-188), GG-Hs.KRAS4b (2-188) G12C; His6-MBP (N, cleaved yes); made in house; host or cells: E. coli
T1 sequence (P01116 2-188 isoform P01116-2): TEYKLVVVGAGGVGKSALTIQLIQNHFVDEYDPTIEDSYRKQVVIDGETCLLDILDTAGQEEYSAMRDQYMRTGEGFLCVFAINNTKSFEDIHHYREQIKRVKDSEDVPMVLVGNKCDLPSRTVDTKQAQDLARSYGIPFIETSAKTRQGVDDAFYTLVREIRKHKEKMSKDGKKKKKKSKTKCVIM

KRAS WT [2] = test system: T2, KRAS WT; test: Protein-Probe thermal stability assay; assay type: binding, human; conditions: for concentration at which KRAS was stabilized / thermal stability effect / KRAS stabilizing effect: 1 mM MgCl2; for Thermal Stability (°C): Table S1, additive as headed: EDTA 0.5 mM, MgCl2 1 mM, GDP 10 mM, GTP 10 µM, GTPγS 10 µM, GMP-PNP 300 µM; for Thermal Stability (°C) / KRAS stabilizing effect: GMP-PCP 300 µM, GMP 1 mM; for thermal stability effect: 10 µM compound
T2 construct: His6-MBP (N, cleaved yes); made in house; host or cells: E. coli
Description: (§1) All Protein-Probe assays were performed using a sample volume of 8 µL and a two-step assay protocol. Detection was performed at room temperature (RT) by adding 65 µL Protein-Probe solution: 4 µM HIDC (1,1,3,3,3′,3′-hexamethylindodicarbocyanine iodide) and 1–1.5 nM Eu^3+-labeled peptide probe (NH2-[…]). Assays were performed in a sample buffer containing 10 mM HEPES (pH 7.5), 0.001% Triton X-100 and 20 mM NaCl and the buffer was supplemented with 0–10 mM MgCl2, 0–1 mM CaCl2, or 0–1 mM EDTA, depending on the assay. In all thermal stability assays, samples were preincubated at RT for 10 min (nucleotides) or 30 min (inhibitors) prior to thermal measurements. Depending on the studied protein, thermal ramping was performed up to 95 °C, using 5 °C intervals. At each temperature, samples were incubated for 3 min before the Protein-Probe solution was added, and the TRL-signals at 620 nm were monitored at RT.
(§2) In addition, KRAS WT was monitored in a sample buffer supplemented with 0–10 mM MgCl2 or 0–1 mM CaCl2.
[…] KRAS WT (50 nM) was also monitored with 10 µM GDP in a buffer without MgCl2 or supplemented with 0–1 mM CaCl2 or 1 mM EDTA. HRAS (2 µM), NRAS (2 µM), RhoA (2 µM), and Gαi (50 nM) were monitored with 100 µM GDP, GTP, or ATP in buffers with or without 1 mM MgCl2 and 1 mM EDTA. In addition, melting curves for KRAS WT (50 nM) were measured with GTP analogs GTPγS, GMPPNP, and GMPPCP (0–300 µM), and GMP (0–1000 µM) in the presence of 1 mM MgCl2.
(§3) All inhibitor assays were performed with a buffer containing 1 mM MgCl2. […]

KRAS G12C = test system: T3, KRAS G12C; test: Protein-Probe thermal stability assay; assay type: binding, human; conditions: for thermal stability effect: 10 µM compound, 1 mM MgCl2
T3 construct: GG-Hs.KRAS4b (2-188) G12C; His6-MBP (N, cleaved yes); made in house; host or cells: E. coli
Description: All Protein-Probe assays were performed using a sample volume of 8 µL and a two-step assay protocol. […] Assays were performed in a sample buffer containing 10 mM HEPES (pH 7.5), 0.001% Triton X-100 and 20 mM NaCl and the buffer was supplemented with 0–10 mM MgCl2, 0–1 mM CaCl2, or 0–1 mM EDTA, depending on the assay. In all thermal stability assays, samples were preincubated at RT for 10 min (nucleotides) or 30 min (inhibitors) prior to thermal measurements. […] At each temperature, samples were incubated for 3 min before the Protein-Probe solution was added, and the TRL-signals at 620 nm were monitored at RT. […]
as §3

KRAS G12D = test: Protein-Probe thermal stability assay; assay type: binding, human; conditions: KRAS G12D 50 nM; 10 µM compound
Description: as §1, §2
(§4) KRAS G13D (50 nM) was monitored in the presence of 0–900 nM GDP, and KRAS WT, G13D, G12D, and Q61R (50 nM) were monitored with 10 and/or 100 µM GDP, GTP, and ATP in buffer supplemented with 1 mM MgCl2. KRAS WT (50 nM) was also monitored with 10 µM GDP in a buffer without MgCl2 or supplemented with 0–1 mM CaCl2 or 1 mM EDTA. HRAS (2 µM), NRAS (2 µM), RhoA (2 µM), and Gαi (50 nM) were monitored with 100 µM GDP, GTP, or ATP in buffers with or without 1 mM MgCl2 and 1 mM EDTA. In addition, melting curves for KRAS WT (50 nM) were measured with GTP analogs GTPγS, GMPPNP, and GMPPCP (0–300 µM), and GMP (0–1000 µM) in the presence of 1 mM MgCl2.
All inhibitor assays were performed with a buffer containing 1 mM MgCl2.
(§5) Assays were performed using three DARPins alone or in combination with small molecular inhibitors. […] The thermal curves were monitored after an additional 30 min incubation at RT.

RhoA = test system: T4, RhoA; test: Protein-Probe thermal stability assay; assay type: binding; conditions: Table S1; RhoA 1 µM; additive concentrations not given (100 µM GDP/GTP)
T4 construct: and RhoA (1-182) were gen-; His6-MBP (N, cleaved yes); made in house; host or cells: E. coli
Description: as §1, §2
as §4, with “HRAS (2 µM), NRAS (2 µM), RhoA (2 µM), and Gαi (50 nM) were monitored with 100 µM GDP, GTP, or ATP in buffers with or without 1 mM MgCl2 and 1 mM EDTA.” left out

KRAS Q61R = test system: T5, KRAS Q61R; test: Protein-Probe thermal stability assay; assay type: binding, human; conditions: for Thermal Stability (°C): Table S1, KRAS Q61R 50 nM, EDTA 0.5 mM, MgCl2 1 mM, GDP 10 mM, GTP 10 µM as headed
T5 construct: GG-Hs.KRAS4b (2-188) Q61R; His6-MBP (N, cleaved yes); made in house; host or cells: E. coli
Description: as §1, §2, §4, §5

KRAS G13D = test system: T6, KRAS G13D; test: Protein-Probe thermal stability assay; assay type: binding, human; conditions: for Thermal Stability (°C): Table S1, KRAS G13D 50 nM, EDTA 0.5 mM, MgCl2 1 mM, GDP 10 mM, GTP 10 µM as headed
T6 construct: GG-Hs.KRAS4b (2-188) G13D; His6-MBP (N, cleaved yes); made in house; host or cells: E. coli
Description: as §1, §2, §4, §5

Gαi = test: Protein-Probe thermal stability assay; assay type: binding; conditions: 100 µM GDP or GTP
Description: as §1, §2, §4

Nc1nc2c(ncn2[C@@H]2O[C@H](COP(=O)(O)OP(=O)(O)NP(=O)(O)O)[C@@H](O)[C@H]2O)c(=O)[nH]1 [GMP-PNP, guanosine-5’-[(β,γ)-imido]triphosphate]
KRAS binding level (KRAS WT [1]): micromolar
EC50 (KRAS WT [1]): 71.2 ± 9.3 nM
Tm of nucleotide-preloaded KRAS (KRAS WT [2]; KRAS 50 nM preloaded with the nucleotide, unit not given, in °C (unit assumed)): 53.2 ± 0.3
concentration at which KRAS was stabilized (KRAS WT [2]; KRAS WT 50 nM): 300000 nM
Thermal Stability (°C) (KRAS WT [2]; KRAS WT 50 nM): 67.1 ± 0.1 °C

C=C(F)C(=O)N1CCN(c2nc(OC[C@@H]3CCCN3C)nc3c2CCN(c2cccc4cccc(Cl)c24)C3)C[C@@H]1CC#N [MRTX849]
ΔTm (KRAS G12C; 50 nM KRAS G12C, inhibitor 0–900 nM, thermal stability increase): 15.6 °C

Nc1nc2c(ncn2[C@@H]2O[C@H](COP(=O)(O)OP(=O)(O)OP(O)(O)=S)[C@@H](O)[C@H]2O)c(=O)[nH]1 [GTPγS, guanosine-5’-(γ-thio)-triphosphate]
KRAS binding (KRAS WT [1]): < 15 nM
EC50 (KRAS WT [1]): 11.7 ± 0.8 nM
concentration at which KRAS was stabilized (KRAS WT [2]; KRAS WT 50 nM): 10000 nM
Thermal Stability (°C) (KRAS WT [2]; KRAS WT 50 nM): 67.8 ± 0.6 °C

[Ca+2].[Cl-].[Cl-] [CaCl2]
stability increase compared to 1 mM EDTA (KRAS WT [2]; KRAS WT 50 nM, additive 0.1 mM): 1.2 °C
stability increase compared to 1 mM EDTA (KRAS WT [2]; KRAS WT 50 nM, additive 1 mM): 3.7 °C

Cn1cnc(Cn2ccc3ccc(CNCc4[nH]c5ccccc5c4[C@@H]4NC(=O)c5ccc(O)cc54)cc32)c1 [BI-2853]
effect on KRAS nucleotide exchange activity (KRAS WT [1]; 100 nM KRAS WT, 10 nM SOScat): no effect
thermal stability effect (KRAS G12D): Neither compound altered
thermal stability effect (KRAS G12C; KRAS G12C 50 nM): no response
thermal stability effect (KRAS WT [2]; KRAS WT 50 nM): Neither compound altered

CNCc1ccccc1-c1csc([C@@H](C)Nc2nc(C)nc3cc(OC)c(OC)cc23)c1 [BAY-293]
thermal stability effect (KRAS G12C; KRAS G12C 50 nM): no response

Nc1nc2c(ncn2[C@@H]2O[C@H](COP(=O)(O)O)[C@@H](O)[C@H]2O)c(=O)[nH]1 [GMP, guanosine-5’-monophosphate]
EC50 (KRAS WT [1]): 101000 ± 8000 nM
KRAS stabilizing effect (KRAS WT [2]; KRAS WT 50 nM): no KRAS stabilizing effect; also recorded: no KRAS stabilization
Thermal Stability (°C) (KRAS WT [2]; KRAS WT 50 nM): 61.3 °C

O=C(O)CN(CCN(CC(=O)O)CC(=O)O)CC(=O)O [EDTA]
Thermal Stability (°C) (KRAS G12C; Table S1, KRAS G12C 50 nM, EDTA 0.5 mM, MgCl2 1 mM): 48.2 ± 0.4 °C
Thermal Stability (°C) (RhoA): 44.7 °C
Tm (KRAS WT [2]; KRAS WT 50 nM, 1 mM EDTA, unit not given, in °C (unit assumed)): 50.8 ± 0.6
Tm (KRAS WT [2]; KRAS WT 100 nM, additive 1 mM): 48.9 ± 0.4 °C
Thermal Stability (°C) (KRAS WT [2]; KRAS WT 50 nM): 49.0 °C
Tm (KRAS Q61R; KRAS Q61R 100 nM, additive 1 mM): 50.6 ± 1.0 °C
Thermal Stability (°C) (KRAS Q61R): 51.8 ± 0.9 °C
Tm (KRAS G13D; KRAS G13D 100 nM, additive 1 mM): 43.6 ± 0.8 °C
Thermal Stability (°C) (KRAS G13D): 47.7 ± 0.5 °C

Nc1nc2c(ncn2[C@@H]2O[C@H](COP(=O)(O)OP(=O)(O)OP(=O)(O)O)[C@@H](O)[C@H]2O)c(=O)[nH]1 [GTP, guanosine-5’-triphosphate]
KRAS binding (KRAS WT [1]): < 15 nM
EC50 (KRAS WT [1]): 7.9 ± 0.6 nM
Thermal Stability (°C) (RhoA): 73.0 °C
concentration at which KRAS was stabilized (KRAS WT [2]; KRAS WT 50 nM): 10000 nM
Thermal Stability (°C) (KRAS WT [2]; KRAS WT 50 nM): 68.2 °C
Thermal Stability (°C) (KRAS Q61R): 71.7 °C
Thermal Stability (°C) (KRAS G13D): 60.8 °C
max ΔTm (Gαi; with Mg2+): ≤ 1.0 °C
max ΔTm (Gαi; without Mg2+): ≤ 3.3 °C

Nc1nc2c(ncn2C2OC(COP(=O)(O)OP(=O)(O)CP(=O)(O)O)C(O)C2O)c(=O)[nH]1 (stereo not drawn) [GMP-PCP, guanosine-5’-[(β,γ)-methyleno]triphosphate]
KRAS binding level (KRAS WT [1]): micromolar
EC50 (KRAS WT [1]): 542 ± 38 nM
KRAS stabilizing effect (KRAS WT [2]; KRAS WT 50 nM): minor effects
Thermal Stability (°C) (KRAS WT [2]; KRAS WT 50 nM): 64.4 °C

Cn1cnc(Cn2ccc3ccc(CNCc4[nH]c5ccccc5c4[C@H]4NC(=O)c5ccc(O)cc54)cc32)c1 [BI-2852]
IC50 (KRAS WT [1]; 100 nM KRAS WT, 10 nM SOScat, inhibitor preincubated with KRAS): 2800 ± 700 nM
thermal stability effect (KRAS G12D): Neither compound altered; also recorded: negligible
thermal stability effect (KRAS G12C; KRAS G12C 50 nM): negligible
thermal stability effect (KRAS WT [2]; KRAS WT 50 nM): Neither compound altered; also recorded: negligible
